How the values were obtained:
[1] = Cytotoxicity against mouse C3H cells after 72 hrs by MTS assay; format: cell-based
Trypanosoma cruzi = assay: Antitrypanosomal activity against Trypanosoma cruzi Tulahuen amastigotes infected in mouse C3H cells after 72 hrs by microplate reader analysis; format: functional, organism-based
[2] = Selectivity index, ratio of IC50 for mouse C3H cells to IC50 for Trypanosoma cruzi Tulahuen amastigotes infected in mouse C3H cells; format: toxicity, cell-based; settings: read-out: Ratio IC50

IC50 (Trypanosoma cruzi) [µM]	SMILES	IC50 [1] [µM]	selectivity ratio [2]
> 100	CC(C)(C)[Si](C)(C)OC[C@]1(O)CC[C@@]23C[C@@H]1C[C@H]2CC[C@@H]1[C@@](C)(CO[Si](C)(C)C(C)(C)C)C(=O)CC[C@]13C		
> 100	CC(C)(C)[Si](C)(C)OC[C@]1(O)CC[C@@]23C[C@@H]1C[C@H]2CC[C@@H]1[C@@](C)(CO[Si](C)(C)C(C)(C)C)[C@@H](O)CC[C@]13C		

Second part, the molecule before the results:

SMILES	IC50 (Trypanosoma cruzi) [µM]	IC50 [1] [µM]	selectivity ratio [2]
COc1cccc2c1C(=O)c1c(O)c3c(c(O)c1C2=O)C[C@@](O)(C(=O)CO)C[C@@H]3O[C@H]1C[C@H](N)[C@H](O)[C@H](C)O1 [DOXORUBICIN]		0.04	
O=C(Cn1ccnc1[N+](=O)[O-])NCc1ccccc1 [BENZNIDAZOLE]	3	> 100	> 100
C[C@]1(CO)/C(=N\O)CC[C@]2(C)[C@@H]1CC[C@@H]1C[C@H]3C[C@]12CC[C@@]3(O)CO	1.7	64.5	37.9
C[C@]12COS(=O)O[C@H]1CC[C@]1(C)[C@@H]2CC[C@@H]2C[C@H]3C[C@]21CC[C@@]3(O)CO (some centres not stated)	0.78	> 100	> 100
